Key:
[1] = target: T1, IRAK4 (Homo sapiens (Human), UniProt Q9NWZ3); test: IRAK4 Biochemical HTRF Kinase Assay; conditions: Table 5; multiple runs; read-out: IRAK4 HTRF biochemical: IC50
Outline: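 HTRF KinEASE STK S1 format measuring IRAK4 phosphorylation of biotinylated peptide; reaction solution of 5 μM STK-S1, 10 mM ATP, 10 mM MgCl2 added (stock, to 10 μl final), 90 min at ambient temperature, detection 60 min. IC50 from sixteen-point duplicate curves by non-linear regression.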
Target sequence in this assay (Q9NWZ3 whole entry, species assumed): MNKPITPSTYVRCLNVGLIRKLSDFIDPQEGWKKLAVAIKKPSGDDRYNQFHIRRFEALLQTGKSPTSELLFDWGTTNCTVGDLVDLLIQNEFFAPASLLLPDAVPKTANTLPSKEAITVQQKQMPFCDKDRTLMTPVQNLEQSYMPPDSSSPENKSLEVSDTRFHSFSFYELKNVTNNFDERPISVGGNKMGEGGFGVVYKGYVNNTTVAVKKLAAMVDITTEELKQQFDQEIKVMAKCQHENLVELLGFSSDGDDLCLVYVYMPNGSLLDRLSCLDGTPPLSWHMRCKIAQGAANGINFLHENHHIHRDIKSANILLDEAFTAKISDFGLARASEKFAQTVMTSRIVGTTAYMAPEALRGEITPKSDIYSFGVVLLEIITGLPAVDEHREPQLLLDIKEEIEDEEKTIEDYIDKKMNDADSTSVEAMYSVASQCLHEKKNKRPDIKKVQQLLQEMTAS

[2] = target: T1, IRAK4; test: IRAK4 Degradation HiBiT Assay; conditions: multiple runs, HiBiT-tagged Jurkat cells, 4 hrs; for Dmax: Jurkat, read-out: Cellular IRAK4 HiBiT: Dmax, Table 5; for DC50: read-out: Cellular IRAK4 HiBiT: DC50, Table 5
Target sequence in this assay (Q9NWZ3 whole entry): as the sequence (Q9NWZ3 whole entry, species assumed) above

CNc1cc(-c2ccc3cc(C#N)cnn23)ncc1-c1nnc([C@H]2CC[C@H](N(C)CC3CCN(c4ccc(C(=O)N(C)C5CCC(=O)NC5=O)cc4)CC3)CC2)s1 (stereo partly drawn) [Example 189, 4-(4-((((1r,4r)-4-(5-(6-(3-cyanopyrrolo[1,2-b]pyridazin-7-yl)-4-(methylamino)pyridin-3-yl)-1,3,4-thiadiazol-2-yl)cyclohexyl)(methyl)amino)methyl)piperidin-1-yl)-N-(2,6-dioxopiperidin-3-yl)-N-methylbenzamide]
IC50 [1]: 0.3 nM
Dmax [2]: 62%
DC50 [2]: 192 nM

CNc1cc(-c2ccc3cc(C#N)cnn23)ncc1-c1nnc([C@H]2C[C@H](NC(=O)CN3CCN(c4ccc5c(c4)C(=O)N(C4CCC(=O)NC4=O)C5=O)CC3)C2)s1 (stereo partly drawn) [Example 190, N-((1r,3r)-3-(5-(6-(3-cyanopyrrolo[1,2-b]pyridazin-7-yl)-4-(methylamino)pyridin-3-yl)-1,3,4-thiadiazol-2-yl)cyclobutyl)-2-(4-(2-(2,6-dioxopiperidin-3-yl)-1,3-dioxoisoindolin-5-yl)piperazin-1-yl)acetamide]
IC50 [1]: 1 nM
Dmax [2]: 105%
DC50 [2]: 7.75 nM

CNc1cc(-c2ccc3cc(C#N)cnn23)ncc1-c1nnc([C@H]2CC[C@H](N(C)C(=O)C[C@H](NC(=O)[C@@H]3C[C@@H](O)CN3C(=O)C(c3cc(C)no3)C(C)C)c3ccc(-c4scnc4C)cc3)CC2)s1 (stereo partly drawn) [Example 191, (2S,4R)—N—((S)-3-(((1r,4S)-4-(5-(6-(3-cyanopyrrolo[1,2-b]pyridazin-7-yl)-4-(methylamino)pyridin-3-yl)-1,3,4-thiadiazol-2-yl)cyclohexyl)(methyl)amino)-1-(4-(4-methylthiazol-5-yl)phenyl)-3-oxopropyl)-4-hydroxy-1-(3-methyl-2-(3-methylisoxazol-5-yl)butanoyl)pyrrolidine-2-carboxamide]
IC50 [1]: 1.5 nM
Dmax [2]: 110%
DC50 [2]: 48.2 nM

CCN(C(=O)C[C@H](NC(=O)[C@@H]1C[C@@H](O)CN1C(=O)C(c1cc(C)no1)C(C)C)c1ccc(-c2scnc2C)cc1)[C@H]1CC[C@H](c2nnc(-c3cnc(-c4ccc5cc(C#N)cnn45)cc3NC)s2)CC1 (stereo partly drawn) [Example 192, (2S,4R)—N—((S)-3-(((1r,4S)-4-(5-(6-(3-cyanopyrrolo[1,2-b]pyridazin-7-yl)-4-(methylamino)pyridin-3-yl)-1,3,4-thiadiazol-2-yl)cyclohexyl)(ethyl)amino)-1-(4-(4-methylthiazol-5-yl)phenyl)-3-oxopropyl)-4-hydroxy-1-(3-methyl-2-(3-methylisoxazol-5-yl)butanoyl)pyrrolidine-2-carboxamide]
IC50 [1]: 1.4 nM
Dmax [2]: 103%
DC50 [2]: 50.6 nM

From patent US12528814B2, “Bifunctional degraders of interleukin-1 receptor-associated kinases and therapeutic use thereof” (NURIX THERAPEUTICS, INC., priority 2020, dated 2026)
